{"source": "patent US6221670A", "about": "“Methods to identify β-amyloid reducing agents” (Scios Inc., priority 1997, dated 2001)", "key": {"β-amyloid 1-40": {"system": "β-amyloid 1-40", "assay": "β-amyloid 1-40 secretion by transgenic mouse hippocampal organotypic slice culture (sandwich ELISA)", "assay_type": "cell-based", "conditions": "72 h; 25 μM to 400 μM, 3-day conditioning period, FIG. 4; read-out: IC50 for β-amyloid production by transgenic mouse hippocampal organotypic slice culture", "description": "Preparation of cultures. Ten day old mouse pups transgenic for the 751 amino acid isoform of human β-amyloid precursor protein (β-APP),programmed for neural expression by the neuron specific enolase promoter were used as tissue source for hippocampal organotypic slice cultures. Cultures were prepared as for rat brain slice organotypic cultures described in Example 1.\nPreperation of cultures. Hippocampal organotypic slice cultures were prepared as described in example 2, from 10 day old mice transgenic for the 751 amino acid isoform of human β-amyloid precursor protein (β-APP), programmed for neural expression by the neuron specific enolase promoter and maintained in culture for 10 days.\nPreparation of cultures. Hippocampal organotypic slice cultures are prepared from 10 day old mice transgenic for the 751 amino acid isoform of human β-amyloid precursor protein (β-APP), programmed for neural expression by the neuron specific enolase promoter as described in Example 2, and maintained in culture for 6 weeks.\nDetailed description of FIG. 4. Hippocampal organotypic slice cultures were prepared from mice transgenic for β-APP751. […] Data points shown were calculated by first taking the mean of duplicate ELISA values for each well, and then calculating the mean of the values for the duplicate treatment wells. […]"}, "[1]": {"assay": "toxicity in transgenic mouse hippocampal organotypic slice culture by LDH assay of serum free conditioned media", "assay_type": "cell-based, mice transgenic for β-APP751", "conditions": "25 μM to 400 μM, 3 days, then additional 24 hours in serum free media, not toxic until this concentration, read-out: concentration at which toxicity became apparent by LDH assay", "description": "Detailed description of FIG. 4. Hippocampal organotypic slice cultures were prepared from mice transgenic for β-APP751. On day 21 in vitro, organotypic cultures were washed with media twice, and duplicate wells were incubated for a 3-day conditioning period in media supplemented with 25 μM to 400 μM MDL 28170, a protease inhibitor shown to inhibit total β-amyloid production in cell culture with an IC50 of 100 μM. MDL 28170 was applied from 100×stock solutions prepared in DMSO. Control culture received only DMSO. Conditioned media was collected at day 24 and assayed in duplicate for β-amyloid 1-40 using a sandwich ELISA. Organotypic cultures were washed with serum free media twice and incubated for an additional 24 hours in serum free media in the continued presence of MDL 28170. This conditioned media was assayed for lactate dehydrogenase (LDH) activity. LDH is a ubiquitous cytosolic enzyme released into conditioned media only by unhealthy cells and is an index of viability and toxicity. High levels of LDH activity in serum require measurements to be made in serum free conditioned media. Data points shown were calculated by first taking the mean of duplicate ELISA values for each well, and then calculating the mean of the values for the duplicate treatment wells.\nAssessment of β-amyloid inhibitor activity and toxicity. Cultures are observed visually approximately every other day. […]"}, "[2]": {"assay": "toxicity in transgenic mouse hippocampal organotypic slice culture by visual inspection", "assay_type": "cell-based, mice transgenic for β-APP751", "conditions": "25 μM to 400 μM, not toxic until this concentration, read-out: concentration at which toxicity became apparent by visual inspection", "description": "Assessment of β-amyloid inhibitor activity and toxicity. Cultures are observed visually approximately every other day. Prior to the commencement of compound testing, on day 18 in culture, a three day test period was initiated in which media was conditioned by the untreated cultures. This media was collected and assayed for β-amyloid 1-40 and 1-42 levels using sensitive ELISAs. Organotypic cultures were then washed with media twice, and incubated for a further 3 day conditioning period in media supplemented with 25 μM to 400 μM MDL 28170, a protease inhibitor shown to inhibit total β-amyloid production in cell culture with an IC50 of 100 μM. MDL 28170 was applied from 100×stock solutions prepared in DMSO. Control culture received only DMSO. After conditioned media was collected at […], organotypic cultures were washed with serum free media twice and incubated for an additional 24 hours in serum free media in the continued presence of MDL 28170. This conditioned media was assayed for lactate dehydrogenase (LDH) activity. LDH is a ubiquitous cytosolic enzyme released into conditioned media only by unhealthy cells and is an index of viability and toxicity. High levels of LDH activity in serum require measurements to be made in serum free conditioned media. […]"}, "[3]": {"system": "total β-amyloid production", "conditions": "cited from earlier work"}}, "note": "Where a SMILES comes first, the peptide text is derived from it. The star is where a group is joined. Cbz = O=C(OCc1ccccc1)*"}
{"smiles": "CC(C)[C@H](NC(=O)OCc1ccccc1)C(=O)N[C@H](C=O)Cc1ccccc1", "note": "[MDL 28170] (Cbz-Val-Phe-aldehyde)", "values": [{"measurement": "IC50", "setting": "β-amyloid 1-40", "value": 100, "unit": "µM"}, {"measurement": "MCC", "setting": "[1]", "value": 400, "unit": "µM"}, {"measurement": "MCC", "setting": "[2]", "value": 400, "unit": "µM"}, {"measurement": "IC50", "setting": "[3]; cell culture (monotypic cells), previously shown, read-out: IC50 for inhibition of total β-amyloid production in cell culture", "value": 100, "unit": "µM"}, {"measurement": "reversibility of MDL activity on cultured monotypic cells", "setting": "[3]; cultured monotypic cells", "value": "reversible"}]}
